In one experiment the test system is TrkA. As to the kind of experiment: TrkA Phosphorylation Assay in PC12 cells. The experiment is classed as cell-based. Conditions: compound 10-50 μM, NGF 10 ng/mL, compared with NGF 50 ng/mL, Western blot/autoradiograph. As for the experimental part: Lane PC12 624 cells not treated with NGF; Lane B—PC12 624 cells treated with NGF (50 ng/mL) for 24 hrs; Lane C—PC12 624 cells treated with NGF (50 ng/mL) for 30 minutes; Lane D—PC12 624 cells treated with NGF (10 ng/mL) and compound 23 (50 μM); Lane E—PC12 624 cells treated with NGF (10 ng/mL) and compound 23 (40 μM), Lane F—PC12 624 cells treated with NGF (10 ng/mL) and compound 23 (30 μM); Lane G—PC12 624 cells treated with NGF (10 ng/mL) and compound 23 (20 μM); Lane H—PC12 624 cells treated with a NGF (10 ng/mL) and compound 23 (10 μM); Lane I—PC12 624 cells treated with NGF (50 ng/mL) for 24 hours, and re-treated with NGF (50 ng/mL) for 30 minutes; Lane J—PC12 624 cells treated with NGF (50 ng/mL) for 30 minutes.
TrkA phosphorylation may be monitored using Trk anti-bodies and Western blot analysis. […] In PC12 expressing cells, this effect is most robust at 30 minutes when 50 ng/mL of NGF is used.
TrkA Phosphorylation Assay: Culture media was removed from cultured PC12 cells (106-107, 50% confluent) and media containing NGF (1 to 50 ng/mL), 0.1% BSA, and compound (1 to 30 μM) was added. The cells were incubated for 1 to 60 minutes, the media was removed and the cells washed twice with ice cold TBS solution. […]
(In general: Immunoblotting shows a protein as a band on a membrane.)

For a further experiment, the system named is SCG ex-plant. As to the kind of experiment: Neurite out-growth in SCG ex-plants with minimal NGF. In kind it is cell-based. Conditions: 30 μM compound, 1 ng/mL NGF, after 2 days. The procedure:
FIG. 3A is an SCG ex-plant cultured in the absence of NGF. No neurite extensions are visible. FIG. 3B. is an SCG ex-plant cultured in the presence of compound 23 (30 μM).
In order to determine if these compounds were capable of augmenting NGF signaling in vitro, compound was added to cultured SCG neurons in the presence of ‘minimal’ quantities of NGF. […] Similar results were obtained using NGF differentiated PC12 cells (not shown).

The structures appear in SMILES notation. “Also recorded” adds a separate entry of the source.

For `O=c1oc2c(Sc3ccc4ccccc4c3)cc(O)cc2s1` [Compound 23, 5-Hydroxy-7-((2-naphthy)sulfanyl)benzo[1,3]oxathiol-2-one], the TrkA phosphorylation result with TrkA was “maintains the level of TrkA phosphorylation even after 24 hours; also recorded: Comparable levels of TrkA phosphorylation”. The neurite outgrowth result in the experiment with SCG ex-plant is on record as “Numerous ordered neurites are present; also recorded: visibly comparable to that observed under ‘optimal’ NGF concentrations”.

The values are drawn from US20060234987A1, “Neuroprotective benzo 1 3 oxathiol 2 ones” (priority 2003, published 2006).
